# Reference: patent US7265091B2, “Methods and compositions for treating male erectile dysfunction” (The Regents of the University of California, priority 2000, dated 2007)
# Where two headings read alike, the source gives them in different places.
# Columns and labels:
# [1] = test system: penile smooth muscle (alpha actin); experiment: Alpha-smooth muscle actin immunohistochemistry of rat penis with image analysis; format: in vivo; settings: castrated rats
# Experimental: Frozen sections were cut at 10 microns, adhered to charged slides, air dried for 15 minutes then rehydrated with 0.05M PBS for 5 minutes. […] The serum solution was drained and then sections were incubated for 60 minutes with mouse monoclonal anti-alpha-smooth muscle actin (Sigma, St. Louis, Mo.) at a dilution of 1:4000 in PBS. […] Immunochemistry was performed in penile tissues from 4 rats randomly chosen from each subgroup.
# Cross-sectional micrographs of the rat penis at the proximal shaft were examined after immunohistochemistry for alpha actin. Alpha actin, a marker for penile smooth muscle, stains brown and can be seen surrounding the sinusoidal spaces. […] Computerized image analysis with Adobe Photoshop was used to quantify the area of immunostaining by counting the number of digitized pixels corresponding to the area of brown staining, thereby providing some numerical comparison of the quantity of smooth muscle in each specimen.
# [2] = test system: VSMC (aorta SMC); settings: VSMC from 16-weeks-old rats
# Experimental: (§1) Primary aorta SMC cultures were prepared similarly with aortas isolated from 16-week-old male rats.
# (§2) Cell migration assays were performed in 6.5-mm Transwell chambers of Corning Costar Corporation (Cambridge, Mass.). The Transwell inserts (upper chambers) were bathed in a solution containing 13.4 μg/ml fibronectin in PBS at 37° C. for 1 hr and allowed to air-dry. The dried upper chambers were then placed in the lower chambers, each of which contained 700 μl of serum-free DMEM supplemented with 0.1% BSA and 0 to 500 ng/ml of VEGF. SMC that had been grown to 70% confluence were further conditioned in serum-free DMEM (containing 0.1% BSA) for 2 hr and then trypsinized. The trypsinized cells were washed in PBS and resuspended at a concentration of 80,000 cells per ml in serum-free DMEM (containing 0.1% BSA). One hundred μl of the cell suspension was then added to each upper chamber. After 4 hr of incubation at 37° C., all liquid in the upper and lower chambers was removed by aspiration. The membranes in the upper chambers were subsequently fixed in 1% buffered formalin for 5 min and stained with 2% crystal violet. Non-migratory cells on the upper side of the membranes were scraped off with cotton swabs. Well locations were marked on the membranes and total cells per well were counted visually in a masked fashion. Well locations were then correlated with the concentrations of VEGF in the wells. […]
# [3] = test system: Penile dorsal arteries; settings: serum-free medium, 3 days
# Experimental: Penile dorsal arteries were isolated from rats and cut into 1-mm segments under a 10× microscope. Each segment was attached to a Matrigel-coated coverslip, which was then put in a 60-mm culture dish. Serum-free medium with or without VEGF was added and the arterial culture was incubated for 3 days.
# [4] = test system: outgrowing blood vessels in artery-muscle co-culture; experiment: Artery-muscle co-culture; format: cell-based
# Source text: We extended our above angiogenesis model to include muscles in a co-culture system. The source of muscle was corpus cavernosum, urethra sphincter, or bladder. […] In addition, the combination of VEGF and PDGF encouraged more extensive contacts between the outgrowing vessels with the muscle. More studies with either single or a combination of other growth factors and the molecular mechanism of vessel growth are currently underway. Once the best growth factor or combinations are identified, we will perform in vivo studies in rats with severe vasculogenic ED to see if the in vitro assay helps identify the best angiogenins.
# [5] = test system: VSMC (aorta SMC); settings: VSMC from 16-weeks-old rats; remark: listed apart in the source
# Experimental: Each primary culture of CSMC was prepared from the corpora cavernosa of 2-3 rats by the following procedure. The penis was cleared of the urethra, blood vessels, fat and connective tissue. The remaining smooth muscle tissue was washed 3 times in sterile PBS (phosphate-buffered saline) and cut into 2-3 mm^3 segments. The segments were placed evenly onto a 100-mm cell culture dish (Falcon-Becton Dickinson Labware, Franklin Lakes, N.J.) inside a cell culture hood. Approximately 10 min later, 10 ml of Dulbecco's Modified Eagle Medium (DMEM) containing penicillin (100 units/ml), streptomycin (100 μg/ml), and 10% FBS was carefully pipetted into the dish. The dish was then kept undisturbed in a humidified 37° C. incubator with 5% CO2. Five days later, tissue segments that have detached from the dish were removed, and the medium was replaced with fresh medium. Another 5 days later, all tissue segments were removed and the medium was again replaced with fresh medium. When small islands of cells were noticeable, they were trypsinized and transferred to a fresh culture dish. […]
# Cell proliferation assays were performed with the CellTiter-96 kit from Promega Inc. (Madison, Wis.). […] After 4 hr of further incubation at 37° C. in the humidified, 5% CO2 incubator, color development, which reflects cell numbers, was recorded with a plate reader (Molecular Devices Corp., Sunnyvale, Calif.) at 490-nm absorbance. […]
# [6] = test system: dorsal nerve, intracavernosal smooth muscle and endothelium; settings: ligated rats, 4 μg of VEGF
# Experimental: The penis was dissected, thinly sliced (˜1 mm thick) and placed in Karnovsky's fixative (1% para-formaldehyde/3% glutaraldehyde/0.1 M sodium cacodylate buffer, pH 7.4) at room temperature for 30 minutes and then stored at 4° C. The fixed tissue was then rinsed in buffer, post-fixed in 2% aqueous OsO4, and stained en bloc with uranyl acetate before being dehydrated in ethanol, cleared in propyline oxide, and embedded in eponate 12 (Ted Pella Co., Redding, Calif.). Thick sections were cut and stained with toludine blue, examined under light microscope to select the area to be thin-sectioned. Thin sections were cut by Leica ultracut E microtome (Bannockburn, Ill.), stained with uranyl acetate and Reynold's Lead to enhance contrast and examined under Philips Tecnai 10 electron microscope (Eidhoven, Netherlands).
# [7] = test system: Rat Model of Traumatic Arteriogenic Erectile Dysfunction
# Source text: Bipolar platinum-wire electrodes were used to stimulate the cavernous nerve. The exposed end of the electrodes were hooked around the nerve to be stimulated, with the positive electrode being positioned proximally and the negative electrode two to three mm distally. Stimulus parameters were 1.5 volts, frequency of 20 pulses per second, pulse width of 0.2 msec, and the duration of 50 seconds. Intracavernous pressure was monitored and recorded by inserting a number 23 scalp vein needle to one of the crura and connected to a pressure monitor.
# [8] = test system: cavernous smooth muscle cells (CSMC); settings: 4 hr
# Experimental: as §1, §2
# [9] = test system: major pelvic ganglia (MPG); experiment: Nerve fiber outgrowth from cultured major pelvic ganglia; format: cell-based, rat; set-up: Average fiber length / FIBER LENGTH (average lengths of the growing fibers): unit not given here
# Experimental: Each freshly isolated MPG was cut into 8 pieces of approximately equal size and each piece was then attached to a Matrigel-coated coverslip. The MPG pieces were cultured in serum-free medium supplemented with phosphate-buffered saline (PBS, control), 50 ng/ml of vascular endothelial growth factor (VEGF), 20 ng/ml of brain-derived neurotrophic factor (BDNF), or VEGF+BDNF. After 2 days of incubation, the ganglial tissues with their outgrowing nerve fibers were stained for the expression of NADPH diaphorase and acetylcholinesterase (AchE).
# We have been using several experimental systems to test the efficacy of combination growth factor therapies for impotence. One system employs cultured rat major pelvic ganglia (MPG) that are known to innervate all urogenital organs, including the penis. We discovered that the cultured MPG are able to sprout new nerve fibers (nerve regeneration) from the axonal ends during the first 3 days of culture, especially when treated with VEGF, BDNF, NT-3, or NT-4.
# [10] = 50 ng/ml VEGF, 20 ng/ml BDNF, 2 days of incubation
substance,measurement,setting,value
VEGF,"quantity of penile smooth muscle, qualitative",[1],returns to normal morphology
same,pixel count of alpha actin immunostaining (quantity of smooth muscle),[1]; proximal penile shaft,52990
same,effect on migration of VSMC,[2],stimulated migration
same,length of budding new blood vessels vs untreated culture,[3],significantly longer
same,cell growth in artery-muscle co-culture,[4],encourage the growth of endothelial cells
same,effect on growth of VSMC,[5],did not stimulate growth
same,appearance of endothelium of sinusoids and capillaries,[6]; 2 and 6-week groups,endothelial cell hypertrophy and hyperplasia
same,appearance of intracavernosal smooth muscle cells,[6]; 2 and 6-week groups,most of the smooth muscle cells appeared normal
same,"mean diameter of the myelinated axons, dorsal nerve",[6]; week 6,6.19±2.38 μm
same,"mean diameter of the nonmyelinated axons, dorsal nerve",[6]; week 6,0.82±0.45 μm
same,Peak sustained intracavernous pressure during electrostimulation of the cavernous nerves,"[7]; 2 μg VEGF intracavernous, Week 1",23.50 ± 2.38 cm H20
same,Peak sustained intracavernous pressure during electrostimulation of the cavernous nerves,"[7]; 2 μg VEGF intracavernous, Week 2",43.00 ± 8.37 cm H20
same,Peak sustained intracavernous pressure during electrostimulation of the cavernous nerves,"[7]; 2 μg VEGF intracavernous, Week 6",69.00 ± 8.83 cm H20
same,Peak sustained intracavernous pressure during electrostimulation of the cavernous nerves,"[7]; 4 μg VEGF intracavernous, Week 1",71.17 ± 16.89 cm H20
same,Peak sustained intracavernous pressure during electrostimulation of the cavernous nerves,"[7]; 4 μg VEGF intracavernous, Week 2",86.25 ± 8.18 cm H20
same,Peak sustained intracavernous pressure during electrostimulation of the cavernous nerves,"[7]; 4 μg VEGF intracavernous, Week 6",96.67 ± 13.50 cm H20
same,improvement in intracavernous pressure compared with the PBS-treated group,"[7]; 2-μg and 4-μg groups, week 6",statistically significant improvement
same,recovery of erectile function,"[7]; 4-μg group, weeks 1 and 2",moderate recovery
same,VEGF concentration of peak CSMC migration,[8]; CSMC from 1-week-old rats,1 ng/mL
same,optimal dosage of VEGF for CSMC migration,[8]; CSMC from young and old rats except 1-week-old,10 ng/mL
same,AchE staining intensity,[9]; [10],"8,470±199 IDV"
same,NADPH staining intensity,[9]; [10],"10,126±187 IDV"
same,FIBER LENGTH (average lengths of the growing fibers),[9]; 48 hours after culturing,89
